In patent US10092592B2, “Application of cyclic dinucleotide (cGAMP) in anti-tumor field” (FUDAN UNIVERSITY, priority 2014, dated 2018):

Assays:
Format in all cases: in vivo
[1] = test system: human gastric carcinoma cell line MNK-45; assay: Subcutaneously transplanted tumor of human gastric carcinoma cell line MNK-45 in nude mice; settings: MNK-45 in BALB/c nude mice; for Average Tumor Weight: mean ± SD, n = 8
Method: (§1) Anti-tumor effect of cGAMP (cyclized GMP-AMP) was detected by employing a tumor-bearing mouse model to test inhibition effect of cGAMP on subcutaneously transplanted tumor.
(§2) Animals: Nude mouse BALB/c, male, with a body weight of 16-18 g, 4-6 weeks old, SPF grade, purchased from SLAC LABORATORY ANIMAL [certification number: SCXK (Shanghai) 2007-0005].
(§3) Dose: cGAMP was injected into abdominal cavities of mice, and two dose groups were set as followed: 10 mg/kg and 40 mg/kg.
(§4) Experimental Controls: • Negative control: brine solution • Positive control: 5-fluorouracil (5-FU), with a dose of 20 mg/kg
(§5) Administration Method: • Administration route: administration by intraperitoneal injection • Administration frequency: once a day for 14 days • Number of each group of animals: 8
(§6) Tumor cell lines: human gastric carcinoma cell line MNK-45, human lung adenocarcinoma cell line A549, human colorectal carcinoma cell line Lovo, human hepatocellular carcinoma cell line SMMC-7721, human prostatic carcinoma cell line PC-3 and human pancreatic carcinoma cell SW1990, purchased from the Cell Bank of the Chinese Academy of Sciences, are included in the above mentioned tumor cell lines.
(§7) 1. establishing a tumor-bearing mouse model and allowing intervention, including: cultivating and passaging cells, collecting cells in logarithmic phase, and making into a cell suspension with a concentration of 1.0×10^7/ml, injecting 0.2 ml of the cell suspension into the nude mice through their right arm armpits to make them get a tumor, and randomly dividing the nude mice into four groups: a negative control which is a group injected with brine through intraperitoneal injection, a 5-FU group which is a group injected with 5-FU through intraperitoneal injection, a cGMP-AMP low-dose group which is a group injected with 10 mg/kg of cGMP-AMP through intraperitoneal injection, and a cGMP-AMP high-dose group which is a group injected with 40 mg/kg of cGMP-AMP through intraperitoneal injection, administrating once a day for 14 days, then killing the nude mice and weighing the wts. Of tumor and calculating a tumor inhibition rate, which is calculated by the following equation: tumor inhibition rate[1−average tumor weight of experimental groups/average tumor weight of A group]×100%, wherein the experimental groups are B, C and D groups; separately establishing 6 subcutaneously implanted tumor models: human gastric carcinoma cell line MNK-45, human lung adenocarcinoma cell line A549, human colorectal carcinoma cell line Lovo, human hepatocellular carcinoma cell line SMMC-7721, human prostatic carcinoma cell line PC-3 and human pancreatic carcinoma cell SW1990, and observing the effect of cGAMP; and
(§8) 2. allowing statistical analysis: representing the data by x±s, processing the data with a software SPSS-10.0, analyzing by one-way ANOVA, comparing the significance of tumor weight differences among the groups, wherein the level of significance is a=0.05.

[2] = test system: human lung adenocarcinoma cell line A549; assay: Subcutaneously transplanted tumor of human lung adenocarcinoma cell line A549 in nude mice; settings: A549 in BALB/c nude mice; for Average Tumor Weight: mean ± SD, n = 8
Method: as §1, §2, §3, §4, §5, §6, §7, §8

[3] = test system: human colorectal carcinoma cell line Lovo; assay: Subcutaneously transplanted tumor of human colorectal carcinoma cell line Lovo in nude mice; settings: Lovo in BALB/c nude mice; for Average Tumor Weight: mean ± SD, n = 8
Method: as §1, §2, §3, §4, §5, §6, §7, §8

[4] = test system: human hepatocellular carcinoma cell line SMMC-7721; assay: Subcutaneously transplanted tumor of human hepatocellular carcinoma cell line SMMC-7721 in nude mice; settings: SMMC-7721 in BALB/c nude mice; for Average Tumor Weight: mean ± SD, n = 8
Method: as §1, §2, §3, §4, §5, §6, §7, §8

[5] = test system: human prostatic carcinoma cell line PC-3; assay: Subcutaneously transplanted tumor of human prostatic carcinoma cell line PC-3 in nude mice; settings: PC-3 in BALB/c nude mice; for Average Tumor Weight: mean ± SD, n = 8
Method: as §1, §2, §3, §4, §5, §6, §7, §8

[6] = test system: human pancreatic carcinoma cell SW1990; assay: Subcutaneously transplanted tumor of human pancreatic carcinoma cell SW1990 in nude mice; settings: SW1990 in BALB/c nude mice; for Average Tumor Weight: mean ± SD, n = 8
Method: as §1, §2, §3, §4, §5, §6, §7, §8

ICR mice = assay: Acute toxicity, single tail intravenous injection
Method: The materials are 20 of ICR mice, which are purchased from SLAC LABORATORY ANIMAL [certification number: SCXK (Shanghai) 2007-0005], are half male and half female, have body weights within 18-22 g, are fed with granular feedstuff and are free to find food and drink.
The method includes: subjecting the ICR mice to single tail intravenous injection of 10 ml/kg cGMAP based on their body weights, namely 2 g/kg, observing toxic reactions and deaths after administration within 14 days.

[7] = 20 mg/kg intraperitoneal once a day for 14 days
[8] = high dose 40 mg/kg intraperitoneal once a day for 14 days
[9] = low dose 10 mg/kg intraperitoneal once a day for 14 days
[10] = single tail intravenous injection 2 g/kg (10 ml/kg)

## O=c1[nH]cc(F)c(=O)[nH]1 [5-FU, 5-fluorouracil, reference compound]
[1]; [7]
  Average Tumor Inhibition Rate: 76.9%
  Average Tumor Weight: 0.619 ± 0.214 (g)
[2]; [7]
  Average Tumor Inhibition Rate: 70.3%
  Average Tumor Weight: 0.843 ± 0.210 (g)
[3]; [7]
  Average Tumor Inhibition Rate: 71.7%
  Average Tumor Weight: 0.769 ± 0.101 (g)
[4]; [7]
  Average Tumor Inhibition Rate: 72.7%
  Average Tumor Weight: 0.853 ± 0.082 (g)
[5]; [7]
  Average Tumor Inhibition Rate: 76.3%
  Average Tumor Weight: 0.728 ± 0.102 (g)
[6]; [7]
  Average Tumor Inhibition Rate: 76.8%
  Average Tumor Weight: 0.685 ± 0.086 (g)

## Nc1nc2c(ncn2[C@@H]2O[C@@H]3COP(=O)(O)O[C@H]4[C@@H](O)[C@H](n5cnc6c(N)ncnc65)O[C@@H]4COP(=O)(O)O[C@@H]2[C@@H]3O)c(=O)[nH]1 [cGAMP, cyclized GMP-AMP]
[1]; [8]
  Average Tumor Inhibition Rate: 61.3%
  Average Tumor Weight: 1.037 ± 0.198 (g)
[1]; [9]
  Average Tumor Inhibition Rate: 38.7%
  Average Tumor Weight: 1.641 ± 0.175 (g)
[2]; [8]
  Average Tumor Inhibition Rate: 59.4%
  Average Tumor Weight: 1.151 ± 0.121 (g)
[2]; [9]
  Average Tumor Inhibition Rate: 44.9%
  Average Tumor Weight: 1.562 ± 0.102 (g)
[3]; [8]
  Average Tumor Inhibition Rate: 55.7%
  Average Tumor Weight: 1.204 ± 0.122 (g)
[3]; [9]
  Average Tumor Inhibition Rate: 36.9%
  Average Tumor Weight: 1.714 ± 0.137 g
[4]; [8]
  Average Tumor Inhibition Rate: 65.2%
  Average Tumor Weight: 1.089 ± 0.130 g
[4]; [9]
  Average Tumor Inhibition Rate: 38.7%
  Average Tumor Weight: 1.916 ± 0.174 (g)
[5]; [8]
  Average Tumor Inhibition Rate: 69.6%
  Average Tumor Weight: 0.932 ± 0.148 g
[5]; [9]
  Average Tumor Inhibition Rate: 52.2%
  Average Tumor Weight: 1.467 ± 0.201 (g)
[6]; [8]
  Average Tumor Inhibition Rate: 67.4%
  Average Tumor Weight: 0.964 ± 0.109 g
[6]; [9]
  Average Tumor Inhibition Rate: 44.8%
  Average Tumor Weight: 1.631 ± 0.133 (g)
ICR mice; [10]
  deaths within 14 days after administration: no death was observed
  pathological changes in organs by naked eyes on dissection, 15th day: no obvious pathological changes in organs were observed
  toxic reactions after the single tail intravenous injection: normal physiological activity was observed
ICR mice; single tail intravenous injection, observed 14 days
  maximum tolerated dose of intravenous injection MTD: not less than 2 g/kg
